Consider one compound from ChEMBL document CHEMBL5579839, “Discovery of new cyclopropane sulfonamide derivatives as EGFR inhibitors to overcome C797S-mediated resistance and EGFR double mutation” (Eur J Med Chem, 2024).

Active and inactive are the calls of the source. No cut-off for these calls is given here.

Data set [1] deals with T1, Epidermal growth factor receptor (Homo sapiens, UniProt P00533). The data set can be described thus: Inhibition of wild-type EGFR (unknown origin).
Data set [2] deals with NCI-H1975. The data set can be described thus: Antiproliferative activity against human NCI-H1975 cells assessed as inhibition of sphere formation incubated for 72 hrs by CCK8 assay. Type of data set: functional, cell-based. Conditions: NCI-H1975, 72 h. On the technique in general: Formazan colour is commonly taken as a measure of viable cells.
Data set [3] has as its system BaF3. As to the kind of experiment: Antiproliferative activity against mouse BaF3 cells harboring EGFR L858R/T790M/C797S mutant assessed as inhibition of sphere formation incubated for 72 hrs by CCK8 assay. Conditions: BaF3, 72 h. It is filed as functional, cell-based.
The subject of data set [4] is BaF3. As to the kind of experiment: Induction of apoptosis in mouse BaF3 cells harboring EGFR L858R/T790M/C797S mutant assessed as increase in green fluorescence at 10 to 25 nM by TUNNEL method. Conditions: dose 10-25 nM. Type of data set: functional, cell-based.
Data set [5] concerns NCI-H1975. As to the kind of experiment: Induction of apoptosis in human NCI-H1975 cells assessed as viable cells at 10 nM incubated for 24 hrs by Annexin V-FITC/PI staining based flow cytometry (reference value: 91.38 %). Particulars: read-out: Activity. Type of data set: functional. (In general: Flow cytometry measures light scatter and fluorescence of single cells or particles in a stream.)

The test system of data set [6] is BaF3. As to the kind of experiment: Induction of apoptosis in mouse BaF3 cells harboring EGFR L858R/T790M/C797S mutant assessed as viable cells at 10 nM incubated for 24 hrs by Annexin V-FITC/PI staining based flow cytometry (reference value: 99.77 %). Conditions: read-out: Activity. Type of data set: functional.
In data set [7] the test system is BaF3. As to the kind of experiment: Induction of apoptosis in mouse BaF3 cells harboring EGFR L858R/T790M/C797S mutant assessed as early apoptotic cells at 10 nM incubated for 24 hrs by Annexin V-FITC/PI staining based flow cytometry (reference value: 0.15 %). Type of data set: functional.
Data set [8] deals with BaF3. The data set can be described thus: Induction of apoptosis in mouse BaF3 cells harboring EGFR L858R/T790M/C797S mutant assessed as necrotic cells at 10 nM incubated for 24 hrs by Annexin V-FITC/PI staining based flow cytometry (reference value: 0.06 %). It is filed as functional.
Data set [9] relates to NCI-H1975. The data set can be described thus: Inhibition of cell migration in human NCI-H1975 cells by transwell assay. Type of data set: functional, cell-based.
For data set [10], the system named is BaF3. As to the kind of experiment: Antitumor activity against mouse BaF3 cells allografted in nude mouse at 50 mg/kg, po measured for 7 days relative to control. Type of data set: functional. Conditions: BaF3, 168 h, time 7 day, read-out: TGI.
Data set [11] in a line: Toxicity in nude mouse allografted with mouse BaF3 cells assessed as body weight loss at 50 mg/kg, po measured for 7 days. Type of data set: organism-based. Conditions: in vivo, 168 h, time 7 day.
Data set [12] deals with T1, Epidermal growth factor receptor. As to the kind of experiment: Inhibition of EGFR in human NCI-H1975 cells assessed as reduction in ERK phosphorylation incubated for 24 hrs by Western blot analysis. Particulars: dose <= 50.0 nM. It is filed as cell-based. (In general: In western blotting, separated proteins are transferred to a membrane and probed.)
Data set [13] relates to NCI-H1975. As to the kind of experiment: Inhibition of neovascularization in human NCI-H1975 cells xenografted in nude mouse at 50 mg/kg, po for 7 days by IHC analysis. Conditions: time 7.0 day. It is filed as functional, organism-based.
Data set [14] in a line: Cytotoxicity against human L02 cells. It is filed as toxicity, cell-based.
Data set [15] is described as follows: Cytotoxicity against VEGF-stimulated human HUVEC cells. It is filed as toxicity, cell-based.
Data set [16] is described as follows: Toxicity in nude mouse allografted with mouse BaF3 cells assessed as damage in heart at 50 mg/kg, po for 7 days by H and E staining based analysis. Particulars: in vivo, 168 h, time 7 day. Type of data set: organism-based.
Data set [17] is described as follows: Toxicity in nude mouse allografted with mouse BaF3 cells assessed as damage in lung at 50 mg/kg, po for 7 days by H and E staining based analysis. Type of data set: organism-based. Conditions: in vivo, 168 h, time 7 day.
Data set [18] is described as follows: Toxicity in nude mouse allografted with mouse BaF3 cells assessed as damage in kidney at 50 mg/kg, po for 7 days by H and E staining based analysis. Type of data set: organism-based. Conditions: in vivo, 168 h, time 7 day.
Data set [19] can be described thus: Toxicity in nude mouse allografted with mouse BaF3 cells assessed as lesion in liver at 50 mg/kg, po for 7 days by H and E staining based analysis. Conditions: in vivo, 168 h, time 7 day. Type of data set: organism-based.
Data set [20] is described as follows: Toxicity in nude mouse allografted with mouse BaF3 cells assessed as lesion in lung at 50 mg/kg, po for 7 days by H and E staining based analysis. Particulars: in vivo, 168 h, time 7 day. It is filed as organism-based.
The target of data set [21] is Vascular endothelial growth factor receptor 2 (Homo sapiens) (UniProt P35968). The data set can be described thus: Binding affinity to KDR (unknown origin) at 100 nM by kinase profiling analysis.
The species entered for the next data set is Homo sapiens. As to the kind of experiment: Binding affinity to FGFR (unknown origin) at 100 nM by kinase profiling analysis.
The target in data set [22] is Platelet-derived growth factor receptor beta (Homo sapiens) (UniProt P09619). As to the kind of experiment: Binding affinity to PDGFR (unknown origin) at 100 nM by kinase profiling analysis.
Platelet-derived growth factor receptor beta (Homo sapiens), sequence (P09619 whole entry): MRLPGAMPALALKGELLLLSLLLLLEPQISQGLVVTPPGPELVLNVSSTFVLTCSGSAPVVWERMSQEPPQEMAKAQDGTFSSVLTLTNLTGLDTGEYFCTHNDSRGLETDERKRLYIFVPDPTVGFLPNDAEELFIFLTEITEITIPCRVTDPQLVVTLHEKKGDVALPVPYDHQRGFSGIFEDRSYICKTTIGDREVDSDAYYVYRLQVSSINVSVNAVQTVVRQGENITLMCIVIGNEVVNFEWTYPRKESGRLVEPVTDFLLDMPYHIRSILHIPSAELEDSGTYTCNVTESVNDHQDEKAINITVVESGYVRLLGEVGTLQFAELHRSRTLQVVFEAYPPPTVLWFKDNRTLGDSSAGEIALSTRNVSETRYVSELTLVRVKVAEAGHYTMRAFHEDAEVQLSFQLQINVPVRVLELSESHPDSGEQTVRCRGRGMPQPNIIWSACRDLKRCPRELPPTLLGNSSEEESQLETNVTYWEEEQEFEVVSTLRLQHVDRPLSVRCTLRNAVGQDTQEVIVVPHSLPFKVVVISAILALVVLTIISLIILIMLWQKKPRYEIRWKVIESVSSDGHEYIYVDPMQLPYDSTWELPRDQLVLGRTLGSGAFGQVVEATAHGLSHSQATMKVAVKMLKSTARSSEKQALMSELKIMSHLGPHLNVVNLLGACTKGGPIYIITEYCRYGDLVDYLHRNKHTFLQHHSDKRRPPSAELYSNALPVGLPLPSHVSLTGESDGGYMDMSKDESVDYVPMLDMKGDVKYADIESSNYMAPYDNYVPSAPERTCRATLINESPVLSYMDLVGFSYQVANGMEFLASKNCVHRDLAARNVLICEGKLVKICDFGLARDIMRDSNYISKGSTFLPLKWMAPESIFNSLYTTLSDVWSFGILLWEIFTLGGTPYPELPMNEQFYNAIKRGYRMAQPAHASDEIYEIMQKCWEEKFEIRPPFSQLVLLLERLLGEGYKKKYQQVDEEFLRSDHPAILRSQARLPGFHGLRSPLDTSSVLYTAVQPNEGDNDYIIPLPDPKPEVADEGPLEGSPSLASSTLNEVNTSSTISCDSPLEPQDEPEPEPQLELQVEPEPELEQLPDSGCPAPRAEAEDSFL

T1 sequence (P00533 whole entry): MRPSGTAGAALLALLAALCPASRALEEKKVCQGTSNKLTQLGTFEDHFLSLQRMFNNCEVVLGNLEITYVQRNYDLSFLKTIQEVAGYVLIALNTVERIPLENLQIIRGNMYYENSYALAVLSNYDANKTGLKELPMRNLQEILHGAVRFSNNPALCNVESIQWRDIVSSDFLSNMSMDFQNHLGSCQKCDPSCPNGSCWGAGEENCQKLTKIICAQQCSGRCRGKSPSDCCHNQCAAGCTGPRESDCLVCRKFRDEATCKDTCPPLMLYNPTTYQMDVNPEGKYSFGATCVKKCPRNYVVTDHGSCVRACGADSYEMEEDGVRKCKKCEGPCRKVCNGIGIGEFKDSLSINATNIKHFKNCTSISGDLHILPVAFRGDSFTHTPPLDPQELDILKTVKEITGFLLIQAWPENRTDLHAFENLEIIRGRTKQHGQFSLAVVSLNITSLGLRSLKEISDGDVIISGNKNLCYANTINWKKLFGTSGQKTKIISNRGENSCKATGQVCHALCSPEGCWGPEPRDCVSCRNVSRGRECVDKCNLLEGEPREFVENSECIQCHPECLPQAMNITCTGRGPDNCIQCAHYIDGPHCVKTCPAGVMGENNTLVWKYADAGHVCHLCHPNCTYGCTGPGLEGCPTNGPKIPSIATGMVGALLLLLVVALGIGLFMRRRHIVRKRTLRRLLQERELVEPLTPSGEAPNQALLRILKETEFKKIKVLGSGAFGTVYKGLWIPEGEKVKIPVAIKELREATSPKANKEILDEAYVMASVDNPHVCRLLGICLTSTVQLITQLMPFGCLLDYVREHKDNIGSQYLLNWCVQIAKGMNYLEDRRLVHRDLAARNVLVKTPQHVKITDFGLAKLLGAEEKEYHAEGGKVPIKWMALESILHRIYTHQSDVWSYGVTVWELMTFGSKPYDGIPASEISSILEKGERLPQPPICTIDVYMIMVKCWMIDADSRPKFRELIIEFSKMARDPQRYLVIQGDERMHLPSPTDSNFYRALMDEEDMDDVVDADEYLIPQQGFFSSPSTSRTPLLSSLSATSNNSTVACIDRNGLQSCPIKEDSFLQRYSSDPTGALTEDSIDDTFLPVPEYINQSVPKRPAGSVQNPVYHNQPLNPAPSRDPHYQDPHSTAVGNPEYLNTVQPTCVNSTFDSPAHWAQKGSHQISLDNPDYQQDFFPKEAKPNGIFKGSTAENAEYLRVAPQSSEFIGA
Vascular endothelial growth factor receptor 2 (Homo sapiens), sequence (P35968 whole entry): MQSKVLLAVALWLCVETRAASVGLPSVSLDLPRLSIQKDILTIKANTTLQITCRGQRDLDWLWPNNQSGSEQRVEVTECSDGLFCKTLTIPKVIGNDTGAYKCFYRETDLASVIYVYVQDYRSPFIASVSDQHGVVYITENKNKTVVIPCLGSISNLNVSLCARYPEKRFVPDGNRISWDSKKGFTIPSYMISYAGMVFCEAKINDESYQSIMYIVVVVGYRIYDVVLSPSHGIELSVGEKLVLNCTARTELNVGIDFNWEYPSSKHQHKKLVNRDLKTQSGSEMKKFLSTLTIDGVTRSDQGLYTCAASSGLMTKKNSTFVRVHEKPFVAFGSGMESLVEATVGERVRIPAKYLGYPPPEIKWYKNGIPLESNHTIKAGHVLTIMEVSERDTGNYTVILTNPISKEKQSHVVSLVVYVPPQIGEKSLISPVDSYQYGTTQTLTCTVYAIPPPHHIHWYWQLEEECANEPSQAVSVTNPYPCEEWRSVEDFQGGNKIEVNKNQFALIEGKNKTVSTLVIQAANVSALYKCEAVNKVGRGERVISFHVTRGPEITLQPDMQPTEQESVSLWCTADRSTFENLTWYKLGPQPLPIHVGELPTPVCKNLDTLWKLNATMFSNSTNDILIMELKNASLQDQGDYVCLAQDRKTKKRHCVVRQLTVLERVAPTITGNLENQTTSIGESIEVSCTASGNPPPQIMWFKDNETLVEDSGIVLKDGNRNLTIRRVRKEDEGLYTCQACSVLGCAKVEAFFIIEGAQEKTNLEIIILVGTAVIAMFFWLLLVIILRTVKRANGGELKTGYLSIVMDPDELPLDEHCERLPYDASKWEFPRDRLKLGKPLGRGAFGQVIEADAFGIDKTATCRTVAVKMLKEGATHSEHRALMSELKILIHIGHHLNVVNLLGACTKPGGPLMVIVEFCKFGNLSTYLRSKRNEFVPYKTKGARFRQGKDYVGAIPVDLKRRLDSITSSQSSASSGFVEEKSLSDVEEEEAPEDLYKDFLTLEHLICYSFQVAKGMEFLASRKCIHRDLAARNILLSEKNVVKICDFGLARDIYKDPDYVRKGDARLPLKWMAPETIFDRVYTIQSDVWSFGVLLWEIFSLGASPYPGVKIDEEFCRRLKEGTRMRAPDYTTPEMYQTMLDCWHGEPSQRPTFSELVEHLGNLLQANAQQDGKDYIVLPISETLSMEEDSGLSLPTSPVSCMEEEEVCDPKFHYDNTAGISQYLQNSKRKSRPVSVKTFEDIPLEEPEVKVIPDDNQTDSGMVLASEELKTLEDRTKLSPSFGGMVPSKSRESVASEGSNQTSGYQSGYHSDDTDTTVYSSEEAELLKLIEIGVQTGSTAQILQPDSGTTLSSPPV

Broadly, the IC50 is the concentration at which inhibition is half-maximal. With `CN1CCCN(c2ccc(Nc3ncc(Br)c(Nc4ccccc4NS(=O)(=O)C4CC4)n3)cc2)CC1`, the concentration for half-maximal inhibition (IC50) was found to be 70.7 nM in data set [1]; 33.8 nM in the data set with NCI-H1975 [2]; 11.2 nM in the data set with BaF3 [3]; 4350 nM in data set [14]; 799 nM in data set [15]. Moreover, the outcome (in the data set with BaF3 [4]; in data set [21]; in the data set filed under Homo sapiens; in data set [22]) was Active. Moreover, the viability at 0.01 µM was found to be 77.3% in the data set with NCI-H1975 [5] and 20.7% in the data set with BaF3 [6]. For the same compound, the Activity with BaF3 [7] was 9.36%; in the data set with BaF3 [8], 0.48%; in [11], “Non-Toxic”; in [16], “Non-Toxic”; in data set [17], “Non-Toxic”; in [18], “Non-Toxic”. Also, the Activity result in data set [19] and in data set [20] was “Non-Toxic” in each case. Moreover, the inhibition result in the data set with NCI-H1975 [9] and in the data set on NCI-H1975 [13] was “Active” throughout. For the same compound, the inhibition in vivo at 50 mg/kg with BaF3 [10] stood at 71.2%. In addition, in data set [12], the inhibition entry is “Dose-Dependent Effect”.
